The text below walks through data of patent US20160362408A1 (Bayer Pharma Aktiengesellschaft, priority 2013, published 2016).

The test has as its target T1, recombinant guanylate cyclase reporter cell line (Rattus norvegicus, UniProt P19686+P20595).
T1 construct: expressed in transfected cells
T1 sequence (P19686 1-690): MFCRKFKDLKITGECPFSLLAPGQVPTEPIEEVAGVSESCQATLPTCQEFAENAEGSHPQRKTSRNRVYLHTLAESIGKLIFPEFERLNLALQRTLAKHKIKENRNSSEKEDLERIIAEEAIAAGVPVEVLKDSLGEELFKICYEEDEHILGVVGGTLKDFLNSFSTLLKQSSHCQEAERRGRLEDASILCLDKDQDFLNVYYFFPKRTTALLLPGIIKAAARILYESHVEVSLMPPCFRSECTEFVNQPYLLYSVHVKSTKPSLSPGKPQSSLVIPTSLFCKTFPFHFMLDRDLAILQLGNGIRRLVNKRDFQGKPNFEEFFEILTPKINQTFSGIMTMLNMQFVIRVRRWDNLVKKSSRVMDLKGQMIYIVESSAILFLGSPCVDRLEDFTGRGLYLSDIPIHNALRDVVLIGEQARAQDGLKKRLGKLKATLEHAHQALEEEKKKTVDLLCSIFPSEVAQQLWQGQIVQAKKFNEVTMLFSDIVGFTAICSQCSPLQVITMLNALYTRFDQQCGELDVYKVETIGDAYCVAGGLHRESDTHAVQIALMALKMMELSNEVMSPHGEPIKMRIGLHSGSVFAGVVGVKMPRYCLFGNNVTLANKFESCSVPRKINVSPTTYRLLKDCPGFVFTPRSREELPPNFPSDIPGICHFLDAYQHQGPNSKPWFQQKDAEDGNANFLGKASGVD
T1 sequence (P20595 1-619): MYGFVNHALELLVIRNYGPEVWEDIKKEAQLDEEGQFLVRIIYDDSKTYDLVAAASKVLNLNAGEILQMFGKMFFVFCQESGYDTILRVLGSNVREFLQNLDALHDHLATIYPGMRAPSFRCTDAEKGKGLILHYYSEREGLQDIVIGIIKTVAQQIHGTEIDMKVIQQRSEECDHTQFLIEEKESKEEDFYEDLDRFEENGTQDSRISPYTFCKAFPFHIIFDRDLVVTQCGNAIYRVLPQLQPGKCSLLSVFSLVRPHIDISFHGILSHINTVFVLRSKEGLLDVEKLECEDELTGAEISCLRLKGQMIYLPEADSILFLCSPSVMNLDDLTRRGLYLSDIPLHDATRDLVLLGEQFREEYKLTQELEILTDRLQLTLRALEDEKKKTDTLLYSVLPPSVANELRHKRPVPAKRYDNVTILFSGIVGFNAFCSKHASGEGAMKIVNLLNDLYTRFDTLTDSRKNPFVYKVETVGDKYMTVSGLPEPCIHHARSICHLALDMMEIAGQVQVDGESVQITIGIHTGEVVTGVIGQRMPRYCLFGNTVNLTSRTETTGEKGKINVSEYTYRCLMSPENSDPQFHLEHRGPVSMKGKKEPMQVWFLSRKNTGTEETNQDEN
Description: Effect on a recombinant guanylate cyclase reporter cell line. It is filed as cell-based. The note with it: MEC = minimum effective concentration; in some cases mean values for individual determinations. The essentials:
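Compounds tested in a recombinant guanylate cyclase reporter cell line per a published method. Potency expressed as minimum effective concentration (MEC), sometimes as mean of individual determinations.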

Where a name gives a salt, the structure may show the parent alone.

Turning to `Cc1nc2c(OCc3c(F)cccc3F)cccn2c1C(=O)Nc1cnn(CCN2CCC(F)(F)CC2)c1` [Example 127, 8-[(2,6-Difluorobenzyl)oxy]-N-{1-[2-(4,4-difluoropiperidin-1-yl)ethyl]-1H-pyrazol-4-yl}-2-methylimidazo[1,2-a]pyridine-3-carboxamide], the MEC was determined as 1.0 µM.

Consider `Cc1nc2c(OCc3c(F)cccc3F)cccn2c1C(=O)Nc1cnn(CCN2CCCC2)c1` [Example 128, 8-[(2,6-difluorobenzyl)oxy]-2-methyl-N-{1-[2-(pyrrolidin-1-yl)ethyl]-1H-pyrazol-4-yl}imidazo [1,2-a]pyridine-3-carboxamide], for which the MEC was found to be 3.0 µM.

Turning to `Cc1nc2c(OCc3c(F)cccc3F)cccn2c1C(=O)Nc1cnn(CCN2CCS(=O)(=O)CC2)c1` [Example 129, 8-[(2,6-difluorobenzyl)oxy]-N-{1-[2-(1,1-dioxidothiomorpholin-4-yl)ethyl]-1H-pyrazol-4-yl}-2-methylimidazo[1,2-a] pyridine-3-carboxamide], the MEC was 10 µM.

For `Cc1nc2c(OCc3c(F)cccc3F)cccn2c1C(=O)Nc1cnn(CCN2CCC(O)CC2)c1` [Example 130, 8-[(2,6-difluorobenzyl)oxy]-N-{1-[2-(4-hydroxypiperidin-1-yl)ethyl]-1H-pyrazol-4-yl}-2-methylimidazol[1,2-a] pyridine-3-carboxamide], the MEC was found to be 10 µM.

As for `Cc1nc2c(OCc3c(F)cccc3F)cccn2c1C(=O)Nc1cnn(CCN2CCOCC2)c1` [Example 132, 8-[(2,6-difluorobenzyl)oxy]-2-methyl-N-{1-[2-(morpholin-4-yl)ethyl]-1H-pyrazol-4-yl} imidazo[1,2-a]pyridine-3-carboxamide], the MEC came out at 1.0 µM.

Consider `Cc1nc2c(OCc3c(F)cccc3F)cccn2c1C(=O)Nc1cnn(CCN2CCN(C)CC2)c1` [Example 133, 8-[(2,6-difluorobenzyl)oxy]-2-methyl-N-{1-[2-(4-methylpiperazin-1-yl)ethyl]-1H-pyrazol-4-yl)imidazo [1,2-a]pyridine-3-carboxamide], for which the MEC worked out at 10 µM.

For `Cc1nc2c(OCc3c(F)cccc3F)cccn2c1C(=O)Nc1cnn(CCN(C)C)c1` [Example 134, 8-[(2,6-difluorobenzyl)oxy]-N-{1-[2-(dimethylamino)ethyl]-1H-pyrazol-4-yl}-2-methylimidazol[1,2-a] pyridine-3-carboxamide], the MEC was 3.0 µM.

As to `Cc1nc2c(OCc3c(F)cccc3F)cccn2c1C(=O)Nc1cnn(CCS(C)(=O)=O)c1` [Example 135, 8-[(2,6-Difluorobenzyl)oxy]-2-methyl-N-{1-[2-(methylsulphonyl)ethyl]-1H-pyrazol-4-yl}imidazo[1,2-a]pyridine-3-carboxamide], the MEC is 3.0 µM.

For the compound `Cc1nc2c(OCc3c(F)cccc3F)cccn2c1C(=O)Nc1cnn(CCOC(N)=O)c1` [Example 138, 2-{4-[({8-[(2,6-Difluorobenzyl)oxy]-2-methylimidazo[1,2-a]pyridin-3-yl}carbonyl)amino]-1H-pyrazol-1-yl}ethyl carbamate], the MEC was found to be 10 µM.

Regarding `Cc1nc2c(OCc3c(F)cccc3F)cccn2c1C(=O)Nc1cnn(CCOS(N)(=O)=O)c1` [Example 139, 2-{4-[({8-[(2,6-Difluorobenzyl)oxy]-2-methylimidazo[1,2-a]pyridin-3-yl}carbonyl)amino]-1H-pyrazol-1-yl}ethyl sulphamate trifluoroacetate], the MEC turned out to be 3.0 µM.

For `Cc1nc2c(OCc3c(F)cccc3F)cccn2c1C(=O)Nc1cnn(CCF)c1` [Example 140, 8-[(2,6-Difluorobenzyl)oxy]-N-[1-(2-fluoroethyl)-1H-pyrazol-4-yl]-2-methylimidazo[1,2-a]pyridine-3-carboxamide], the MEC turned out to be 1.0 µM.

On to `Cc1nc2c(OCc3c(F)cccc3F)cc(Cl)cn2c1C(=O)Nc1cnn(CCF)c1` [Example 141, 6-chloro-8-[(2,6-difluorobenzyl)oxy]-N-[1-(2-fluoroethyl)-1H-pyrazol-4-yl]-2-methylimidazo[1,2-a]pyridine-3-carboxamide], for which the MEC was 1.0 µM.

In the case of `O=C(Nc1cnn(CCO)c1)c1c(C2CC2)nc2c(OCc3c(F)cccc3F)cccn12` [Example 142, 2-Cyclopropyl-8-[(2,6-difluorobenzyl)oxy]-N-[1-(2-hydroxyethyl)-1H-pyrazol-4-yl]imidazo[1,2-a]pyridine-3-carboxamide], the MEC amounted to 10 µM.

Regarding `Cc1nc2c(OCc3c(F)cccc3F)cccn2c1C(=O)Nc1cc(F)cc(F)c1N` [Example 143, N-(2-Amino-3,5-difluorophenyl)-8-[(2,6-difluorobenzyl)oxy]-2-methylimidazo[1,2-a]pyridine-3-carboxamide], the MEC amounted to 0.3 µM.

As for `Cc1nc(NC(=O)c2c(C)nc3c(OCc4c(F)cccc4F)cccn23)oc1C` [Example 144, 8-[(2,6-difluorobenzyl)oxy]-N-(4,5-dimethyl-1,3-oxazol-2-yl)-2-methylimidazo[1,2-a]pyridine-3-carboxamide], the MEC was found to be 3.0 µM.

In the case of `Cc1nc2c(OCc3c(F)cccc3F)cccn2c1C(=O)Nc1nccs1` [Example 145, 8-[(2,6-difluorobenzyl)oxy]-2-methyl-N-(1,3-thiazol-2-yl) imidazo[1,2-a]pyridine-3-carboxamide], the MEC is 3.0 µM.

Regarding `Cc1cnc(NC(=O)c2c(C)nc3c(OCc4c(F)cccc4F)cccn23)s1` [Example 146, 8-[(2,6-difluorobenzyl)oxy]-2-methyl-N-(5-methyl-1,3-thiazol-2-yl)imidazo[1,2-a]pyridine-3-carboxamide], the MEC turned out to be 3.0 µM.

Turning to `CCn1nc(C)c(NC(=O)c2c(C)nc3c(OCCC(C(F)(F)F)C(F)(F)F)cc(C)cn23)c1C` [Example 147, N-(1-Ethyl-3,5-dimethyl-1H-pyrazol-4-yl)-2,6-dimethyl-8-[4,4,4-trifluoro-3-(trifluoromethyl)butoxy]imidazo[1,2-a]pyridine-3-carboxamide], the MEC turned out to be 3.0 µM.

For the compound `Cc1cc(OCCC(C(F)(F)F)C(F)(F)F)c2nc(C)c(C(=O)Nc3c(C)nn(Cc4ccccc4F)c3C)n2c1` [Example 148], the MEC amounted to 1.0 µM.

Consider `Cc1cc(OCCC(C(F)(F)F)C(F)(F)F)c2nc(C)c(C(=O)Nc3c(C)n[nH]c3C(F)(F)F)n2c1` [Example 149, 2,6-dimethyl-N-[3-methyl-5-(trifluoromethyl)-1H-pyrazol-4-yl]-8-[4,4,4-trifluoro-3-(trifluoromethyl)butoxy]imidazo[1,2-a]pyridine-3-carboxamide], for which the MEC is 2.0 µM.

On to `Cc1nc2c(OCC3CCCCC3)cccn2c1C(=O)Nc1cccc(CCC(=O)O)c1` [Example 150, 3-[3-({[8-(Cyclohexylmethoxy)-2-methylimidazo[1,2-a]pyridin-3-yl]carbonyl}amino)phenyl]propanoic acid], for which the MEC was 1.0 µM.

In the case of `Cc1cc(OCC2CC(F)(F)C2)c2nc(C)c(C(=O)Nc3c(C)n[nH]c3C(F)(F)F)n2c1` [Example 151, 8-[(3,3-Difluorocyclobutyl)methoxy]-2,6-dimethyl-N-[3-methyl-5-(trifluoromethyl)-1H-pyrazol-4-yl]imidazo[1,2-a]pyridine-3-carboxamide], the MEC came out at 3.0 µM.

For the compound `Cc1cc(OCc2c(F)cccc2F)c2nc(C)c(C(=O)Nc3cccc(S(C)(=O)=O)c3)n2c1` [Example 152, 8-[(2,6-Difluorobenzyl)oxy]-2,6-dimethyl-N-[3-(methylsulphonyl)phenyl]imidazo[1,2-a]pyridine-3-carboxamide], the MEC was 1.0 µM.

As for `Cc1cc(OCc2c(F)cccc2F)c2nc(C)c(C(=O)Nc3cccc(NS(C)(=O)=O)c3)n2c1` [Example 153, 8-[(2,6-Difluorobenzyl)oxy]-2,6-dimethyl-N-{3-[(methylsulphonyl)amino]phenyl}imidazo[1,2-a]pyridine-3-carboxamide], the MEC is 3.0 µM.

As to `Cc1nn(S(C)(=O)=O)c(C)c1NC(=O)c1c(C)nc2c(OCc3c(F)cccc3F)cccn12` [Example 154, 8-[(2,6-Difluorobenzyl)oxy]-N-[3,5-dimethyl-1-(methylsulphonyl)-1H-pyrazol-4-yl]-2-methylimidazo[1,2-a]pyridine-3-carboxamide], the MEC came to 1.0 µM.
